From US20080292584A1 (priority 2005, published 2008)
Several values for one entry are separate records, joined by “and”; a condition that tells them apart may be missing. Equal values may be shown once. Read-outs that look alike come from different tables or passages of the source.

Experiments:
[1] = biological target: T1, human CYP1A2 (Homo sapiens, UniProt P05177); experiment: Metabolism of metaxalone by expressed recombinant human CYP1A2 (disappearance of metaxalone, HPLC; Example 1); conditions: 30 min;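 further: recombinant CYP1A2 microsomes (10 pmol P450) in Tris buffer containing 1% methanol, reactions driven by an NADPH regenerating system, 0.5 mL incubations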
T1 sequence (P05177 2-516 limits assumed): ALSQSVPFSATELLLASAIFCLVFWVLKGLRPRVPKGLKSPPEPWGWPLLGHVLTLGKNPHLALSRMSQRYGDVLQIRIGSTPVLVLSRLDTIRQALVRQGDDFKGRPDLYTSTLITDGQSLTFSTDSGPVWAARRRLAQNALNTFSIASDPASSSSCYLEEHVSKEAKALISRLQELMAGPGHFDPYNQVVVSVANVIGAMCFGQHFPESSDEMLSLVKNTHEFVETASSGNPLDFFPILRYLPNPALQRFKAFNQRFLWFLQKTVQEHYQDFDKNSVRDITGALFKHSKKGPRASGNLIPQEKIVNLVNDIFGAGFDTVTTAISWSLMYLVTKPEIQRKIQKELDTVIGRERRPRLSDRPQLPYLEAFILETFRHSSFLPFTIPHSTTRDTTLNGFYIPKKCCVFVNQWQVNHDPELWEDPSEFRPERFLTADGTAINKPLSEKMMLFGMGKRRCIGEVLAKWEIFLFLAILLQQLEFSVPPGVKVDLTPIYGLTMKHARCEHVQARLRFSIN
Method: Commercially available microsomes from baculovirus-infected insect cells containing singly-expressed recombinant wild-type (*1 allele) human CYP enzymes and cDNA-expressed human cytochrome p450 oxidoreductase [BD SUPERSOMES Enzymes; BD Biosciences Discovery Labware (Woburn, Mass.)] were used.
After a 5-minute pre-incubation, an NADPH regenerating system (NRS) was added to the incubation mixtures to initiate reactions, with a final incubation volume of 0.5 mL. Incubations were continued for 30 minutes, and then terminated, except for those for CYP2C19, which were incubated for 36 minutes prior to termination.
Matrix controls were performed to determine the background signal from the matrix components (microsomes (10 pmol p450), 01N Tris buffer, NRS, and 1% methanol). […] After a 5-minute pre-incubation, 2% sodium bicarbonate solution was added to the incubation mixtures. Incubation was for 30 minutes at a final volume of 0.5 mL. Matrix and metabolic negative controls were terminated by adding an equal volume of methanol. […] Analysis of samples was subsequent to storage at −70° C.

[2] = biological target: CYP3A4 (Homo sapiens, UniProt P08684); conditions: for Percent of VC / Specific Activity Mean ± SD: human, 10 min
Method: All other incubations were for 30 minutes.
(§1) Four replicates were performed.
as §1
Two replicates were performed.

[3] = biological target: T2, CYP1A2 (Homo sapiens, UniProt P05177); conditions: both, pH 7.4; for Mean Conc.: 60 min; for % Turnover Mean: microsomes, 1 h
T2 sequence (P05177 1-516): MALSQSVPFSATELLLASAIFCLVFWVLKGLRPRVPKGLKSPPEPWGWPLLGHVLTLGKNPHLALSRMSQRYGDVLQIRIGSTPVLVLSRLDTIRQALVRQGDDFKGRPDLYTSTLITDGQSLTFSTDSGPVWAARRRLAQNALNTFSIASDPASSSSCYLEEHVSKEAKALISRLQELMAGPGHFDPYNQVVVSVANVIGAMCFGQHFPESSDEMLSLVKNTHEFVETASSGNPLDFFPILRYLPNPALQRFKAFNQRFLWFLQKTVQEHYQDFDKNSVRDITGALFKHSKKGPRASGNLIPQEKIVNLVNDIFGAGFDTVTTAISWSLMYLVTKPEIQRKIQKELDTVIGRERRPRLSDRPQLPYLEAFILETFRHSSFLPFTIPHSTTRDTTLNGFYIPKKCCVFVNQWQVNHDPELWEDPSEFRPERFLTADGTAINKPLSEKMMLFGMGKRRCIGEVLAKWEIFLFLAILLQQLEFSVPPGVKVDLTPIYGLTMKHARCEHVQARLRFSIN
Method: (§2) Human liver microsomes pooled from 15 individuals (male and female) (Pool HMMC-PL020; CellzDirect, Inc., In Vitro Products and Services Division) were used in some experiments of this study.
(§3) % Turnover=100−{[TA(final)]/[mean of TA(0 min)]}×100,
(§4) % Inhibition of Turnover=100{1−([TA(0 min)]−[TA(final-inhibitor)])/([TA(0 min)]−[TA(final-no inhibitor)])}.
(§5) The inhibitors or vehicle control were incubated with the pooled human liver microsomes (1 mg/mL) and NADPH (1 mM) in 0.1 M phosphate buffer, pH 7.4. […] Incubations were conducted in triplicate and terminated by addition of organic solvent. Samples were extracted and analyzed by LC-MS/MS as described above.

[4] = system: CYP2B6; experiment: Chemical inhibition of metaxalone turnover in human liver microsomes, CYP2B6 inhibitor thio-TEPA; conditions: 1 mg/mL HLM, 60 min, with thio-TEPA; for % Turnover / % inhibition of turnover / Conc.: single replicates
Method: as §2, §3, §4, §5

[5] = biological target: CYP2C19 (Homo sapiens, UniProt P33261); experiment: Metabolism of metaxalone by expressed recombinant human CYP2C19 at 5 or 20 pmol (Example 4); conditions: for percent turnover / % Turnover Mean / [metaxalone] Mean / % Turnover % / [metaxalone]: 60 min; for % Turnover % / [metaxalone]: single replicates, listed as Metaxalone
[6] = biological target: T1, human CYP1A2; experiment: Metabolism of metaxalone by expressed recombinant human CYP1A2 at 5 or 20 pmol (Example 4, LC-MS/MS); conditions: for percent turnover / % Turnover Mean / [metaxalone] Mean / % Turnover % / [metaxalone]: 60 min; for % Turnover % / [metaxalone]: single replicates, listed as Metaxalone
[7] = 7.5 μM metaxalone, listed as Metaxalone
[8] = 0.75 μM metaxalone, 5 pmol CYP450
[9] = 0.75 μM metaxalone, 20 pmol CYP450
[10] = 0.75 μM metaxalone, 20 pmol cyp
[11] = 7.5 μM metaxalone, 5 pmol CYP450
[12] = 7.5 μM metaxalone, 20 pmol CYP450

Chain of CYP3A4 (P08684 whole entry): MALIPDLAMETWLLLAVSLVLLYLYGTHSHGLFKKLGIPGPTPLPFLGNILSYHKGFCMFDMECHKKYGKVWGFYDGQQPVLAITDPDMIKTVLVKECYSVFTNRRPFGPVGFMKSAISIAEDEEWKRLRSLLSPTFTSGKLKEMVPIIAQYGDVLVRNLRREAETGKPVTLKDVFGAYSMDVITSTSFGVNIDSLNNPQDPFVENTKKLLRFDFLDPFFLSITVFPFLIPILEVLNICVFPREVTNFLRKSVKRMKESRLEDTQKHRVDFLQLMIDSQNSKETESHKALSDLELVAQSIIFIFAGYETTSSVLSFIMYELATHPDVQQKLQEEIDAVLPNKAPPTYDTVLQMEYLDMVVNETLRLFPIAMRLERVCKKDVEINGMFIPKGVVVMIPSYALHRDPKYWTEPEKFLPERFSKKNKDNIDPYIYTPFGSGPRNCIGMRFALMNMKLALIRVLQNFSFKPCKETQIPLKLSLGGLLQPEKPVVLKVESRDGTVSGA
Chain of CYP2C19 (P33261 whole entry): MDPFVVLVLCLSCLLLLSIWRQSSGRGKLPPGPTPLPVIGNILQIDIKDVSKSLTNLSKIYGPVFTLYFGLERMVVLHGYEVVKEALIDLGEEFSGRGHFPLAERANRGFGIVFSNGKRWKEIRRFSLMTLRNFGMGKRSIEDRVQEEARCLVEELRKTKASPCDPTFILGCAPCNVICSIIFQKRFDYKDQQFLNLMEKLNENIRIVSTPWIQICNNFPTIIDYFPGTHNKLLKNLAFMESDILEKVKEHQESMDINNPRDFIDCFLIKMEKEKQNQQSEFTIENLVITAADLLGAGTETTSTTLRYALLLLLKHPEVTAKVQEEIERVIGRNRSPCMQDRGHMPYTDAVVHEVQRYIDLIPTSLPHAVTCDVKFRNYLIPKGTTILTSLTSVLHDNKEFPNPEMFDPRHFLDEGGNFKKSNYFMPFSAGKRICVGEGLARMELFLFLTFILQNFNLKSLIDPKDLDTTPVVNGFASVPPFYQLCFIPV

Cc1cc(C)cc(OCC2CNC(=O)O2)c1 (stereo not shown) [metaxalone, 5-[(3,5-dimethylphenoxy)methyl]-2-oxazolidinone]
Metaxalone Present Adjusted Individual ([1]; metaxalone 0.5 μM): 0.302 µM and 0.440 µM and 0.315 µM
Metaxalone Present Adjusted Mean ± SD ([1]; metaxalone 0.5 μM): 0.352 ± 0.0761 µM
Metaxalone Present Raw ([1]; metaxalone 0.5 μM): 0.1509 µM and 0.2198 µM and 0.1573 µM
Percent of Metabolic Negative Control Individual ([1]; metaxalone 0.5 μM): 77.1% and 112% and 80.4%
Percent of Metabolic Negative Control Mean ± SD ([1]; metaxalone 0.5 μM): 89.9 ± 19.4%
Metaxalone Present Adjusted Individual ([1]; metaxalone 2.5 μM): 1.05 µM and 1.06 µM and 1.08 µM
Metaxalone Present Adjusted Mean ± SD ([1]; metaxalone 2.5 μM): 1.07 ± 0.0167 µM
Metaxalone Present Raw ([1]; metaxalone 2.5 μM): 0.527 µM and 0.5291 µM and 0.5423 µM
Percent of Metabolic Negative Control Individual ([1]; metaxalone 2.5 μM): 79.5% and 79.8% and 81.8%
Percent of Metabolic Negative Control Mean ± SD ([1]; metaxalone 2.5 μM): 80.4 ± 1.26%
Metaxalone Present Adjusted Individual ([1]; metaxalone 25 μM): 16.4 μM (2×) and 17.0 μM
Metaxalone Present Adjusted Mean ± SD ([1]; metaxalone 25 μM): 16.6 ± 0.337 µM
Metaxalone Present Raw ([1]; metaxalone 25 μM): 8.205 µM and 8.192 µM and 8.49 µM
Percent of Metabolic Negative Control Individual ([1]; metaxalone 25 μM): 82.8% and 82.6% and 85.6%
Percent of Metabolic Negative Control Mean ± SD ([1]; metaxalone 25 μM): 83.7 ± 1.70%
Inhibitor [2]: +
Percent of VC ([2]; 0.3 μM): 87.1%
Specific Activity Mean ± SD ([2]; 0.3 μM): 517 ± 10.4 pmol/min/mg protein
Percent of VC ([2]; 1 μM): 88.1%
Specific Activity Mean ± SD ([2]; 1 μM): 523 ± 2.83 pmol/min/mg protein
Percent of VC ([2]; 3 μM): 90.0%
Specific Activity Mean ± SD ([2]; 3 μM): 534 ± 3.36 pmol/min/mg protein
Percent of VC ([2]; 30 μM): 85.2%
Specific Activity Mean ± SD ([2]; 30 μM): 506 ± 29.6 pmol/min/mg protein
Percent of VC ([2]; 100 μM): 80.3%
Specific Activity Mean ± SD ([2]; 100 μM): 477 ± 36.3 pmol/min/mg protein
Mean Conc. ([3]; 0.75 μM): 0.797 µM
Mean Conc. ([3]; 7.5 μM): 8.11 µM
% Turnover Mean ([3]; 0.75 μM): −3.29%
% Turnover Mean ([3]; 7.5 μM): 4.77%
% Turnover Mean ([4]; 0.75 μM metaxalone): 12.4%
% inhibition of turnover Mean ([4]; 0.75 μM metaxalone): 58.3%
Mean Conc. ([4]; 0.75 μM metaxalone): 0.676 µM
% Turnover ([4]; 0.75 μM metaxalone): 12.1% and 11.3% and 13.8%
% inhibition of turnover ([4]; 0.75 μM metaxalone): 59.3% and 62.0% and 53.7%
Conc. ([4]; 0.75 μM metaxalone): 0.678 µM and 0.684 µM and 0.665 µM
% Turnover Mean ([4]; 7.5 μM metaxalone): 14.0%
% inhibition of turnover Mean ([4]; 7.5 μM metaxalone): 43.3%
Mean Conc. ([4]; 7.5 μM metaxalone): 7.33 µM
% Turnover ([4]; 7.5 μM metaxalone): 7.7%
% Turnover [4, 7]: 14.8% and 19.4%
% inhibition of turnover [4, 7]: 68.7% and 40.0% and 21.1%
Conc. [4, 7]: 7.86 µM and 7.26 µM and 6.86 µM
percent turnover [5, 8]: 6.9%
% Turnover Mean ([5]; 0.75 μM metaxalone, 5 pmol cyp): 6.9%
[metaxalone] Mean ([5]; 0.75 μM metaxalone, 5 pmol cyp): 0.662 µM
% Turnover % ([5]; 0.75 μM metaxalone, 5 pmol cyp): 2.2% and 7.6% and 11.0%
[metaxalone] ([5]; 0.75 μM metaxalone, 5 pmol cyp): 0.696 µM and 0.658 µM and 0.634 µM
percent turnover [5, 9]: 12.5%
% Turnover Mean [5, 10]: 12.5%
[metaxalone] Mean [5, 10]: 0.623 µM
% Turnover % [5, 10]: 7.4% and 13.3% and 16.9%
[metaxalone] [5, 10]: 0.659 µM and 0.618 µM and 0.591 µM
percent turnover [5, 11]: 6.3%
% Turnover Mean ([5]; 7.5 μM metaxalone, 5 pmol cyp): 6.3%
[metaxalone] Mean ([5]; 7.5 μM metaxalone, 5 pmol cyp): 7.23 µM
% Turnover % ([5]; 7.5 μM metaxalone, 5 pmol cyp): 0.25% and 7.1% and 11.6%
[metaxalone] ([5]; 7.5 μM metaxalone, 5 pmol cyp): 7.69 µM and 7.17 µM and 6.82 µM
percent turnover [5, 12]: 18.7%
% Turnover Mean ([5]; 7.5 μM metaxalone, 20 pmol cyp): 18.7%
[metaxalone] Mean ([5]; 7.5 μM metaxalone, 20 pmol cyp): 6.27 µM
% Turnover % ([5]; 7.5 μM metaxalone, 20 pmol cyp): 20.2% and 18.0% and 17.8%
[metaxalone] ([5]; 7.5 μM metaxalone, 20 pmol cyp): 6.16 µM and 6.32 µM and 6.34 µM
Substrate ([5]; CYP isozyme 2C19, summary of studies): +
percent turnover [6, 8]: 9.2%
% Turnover Mean ([6]; 0.75 μM metaxalone, 5 pmol cyp): 9.2%
[metaxalone] Mean ([6]; 0.75 μM metaxalone, 5 pmol cyp): 0.719 µM
% Turnover % ([6]; 0.75 μM metaxalone, 5 pmol cyp): 17.5% and 6.2% and 3.9%
[metaxalone] ([6]; 0.75 μM metaxalone, 5 pmol cyp): 0.653 µM and 0.742 µM and 0.761 µM
percent turnover [6, 9]: 34.8%
% Turnover Mean [6, 10]: 34.8%
[metaxalone] Mean [6, 10]: 0.516 µM
% Turnover % [6, 10]: 31.7% and 35.5% and 37.3%
[metaxalone] [6, 10]: 0.540 µM and 0.511 µM and 0.496 µM
percent turnover [6, 11]: 10.0%
% Turnover Mean ([6]; 7.5 μM metaxalone, 5 pmol cyp): 10.0%
[metaxalone] Mean ([6]; 7.5 μM metaxalone, 5 pmol cyp): 7.60 µM
% Turnover % ([6]; 7.5 μM metaxalone, 5 pmol cyp): 14.3% and 5.7%
[metaxalone] ([6]; 7.5 μM metaxalone, 5 pmol cyp): 7.24 µM and 7.97 µM
percent turnover [6, 12]: 30.4%
% Turnover Mean ([6]; 7.5 μM metaxalone, 20 pmol cyp): 30.4%
[metaxalone] Mean ([6]; 7.5 μM metaxalone, 20 pmol cyp): 5.88 µM
% Turnover % ([6]; 7.5 μM metaxalone, 20 pmol cyp): 33.3% and 32.3% and 25.5%
[metaxalone] ([6]; 7.5 μM metaxalone, 20 pmol cyp): 5.63 µM and 5.72 µM and 6.29 µM
Substrate ([6]; CYP isozyme 1A2, summary of studies): +
